Measured values reported in publication PMC6487176, “Specific Binding Peptides from Rv3632: A Strategy for Blocking Mycobacterium tuberculosis Entry to Target Cells?” (BioMed Research International, 2019).
Where no end group is shown, it is not given here.

Legend:
Format in all cases: cell-based
[1] = tested on: Mtb H37Rv entry to A549 alveolar epithelial cells; test: microbe, parasite or virus in culture; settings: Mycobacterium tuberculosis, A549, 480 h, inhibition control at 30 μM, triplicate, read-out: inhibition of mycobacterial entry to A549 epithelial cells
[2] = tested on: Mtb H37Rv entry to U937 macrophages; test: microbe, parasite or virus in culture; settings: Mycobacterium tuberculosis, U-937, 480 h, inhibition control at 30 μM, triplicate, read-out: inhibition of mycobacterial entry to U937 monocyte-derived macrophages
[3] = tested on: U937 macrophage line; settings: MTT; peptide 20 and 200 μM in 1X PBS, 2 h; 5 x 10^4 cells/well; absorbance 570 nm
Method: Rv3632 peptides' cytotoxic effect was evaluated by viability assay involving MTT (3- (4,5-dimethylthiazol-2-yl) -2,5-diphenyltetrazolium bromide) tetrazolium reduction, where 5 x 10^4 cells/well were incubated for 2 hours with each peptide at 20 and 200 μM in 1X PBS, using the previously mentioned incubation conditions for the invasion assay; 10% SDS was used as cytotoxicity control. After incubation time had elapsed, 10μL MTT were added to each well and left for 12 hours; the formazan crystals so formed were dissolved with sodium dodecyl sulfate (SDS) for reading absorbance at 570nm on a spectrophotometer (Multiskan GO, Thermo Scientific). Multiskan GO (v. 3.2) software was used for analysing the data.

| Molecule | inhibition at 30 µM [1] | inhibition at 30 µM [2] | cytotoxic effect on the U937 macrophage line, result in words [3] |
| --- | --- | --- | --- |
| C=C1[C@@H](C)[C@H]2[C@H](Cc3ccccc3)NC(=O)[C@]23[C@H](OC(C)=O)/C=C/[C@@](C)(O)C(=O)[C@@H](C)C/C=C/[C@H]3[C@@H]1O [Cytochalasin, Cytochalasin D] | 60% | 80% |  |
| TLSTYMRFKDLELRYARIAR [compound 39255] |  |  | without having a cytotoxic effect |
